The source made the active and inactive calls.
Assays:
Caspase-3 = target: T1, Caspase-3 (Homo sapiens, UniProt P42574); type: functional;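 note: Dose-response selectivity test against caspase-3 for candidate inhibitors of sentrin-specific proteases (SENPs)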
T1 sequence (P42574 whole entry): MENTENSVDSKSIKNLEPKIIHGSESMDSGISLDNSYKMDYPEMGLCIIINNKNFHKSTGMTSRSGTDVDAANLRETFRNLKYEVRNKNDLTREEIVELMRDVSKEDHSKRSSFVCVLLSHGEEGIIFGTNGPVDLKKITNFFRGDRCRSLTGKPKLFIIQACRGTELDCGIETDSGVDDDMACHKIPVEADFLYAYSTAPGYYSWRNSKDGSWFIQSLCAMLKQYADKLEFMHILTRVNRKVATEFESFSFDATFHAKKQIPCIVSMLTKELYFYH

[1] = target: Potassium voltage-gated channel subfamily KQT member 2 (Rattus norvegicus, UniProt O88943); experiment: potentiation of rat KCNQ2 current – cell-based, retigabine-insensitive compounds, dose response (AID 2654); type: functional
Chain of Potassium voltage-gated channel subfamily KQT member 2 (O88943 whole entry): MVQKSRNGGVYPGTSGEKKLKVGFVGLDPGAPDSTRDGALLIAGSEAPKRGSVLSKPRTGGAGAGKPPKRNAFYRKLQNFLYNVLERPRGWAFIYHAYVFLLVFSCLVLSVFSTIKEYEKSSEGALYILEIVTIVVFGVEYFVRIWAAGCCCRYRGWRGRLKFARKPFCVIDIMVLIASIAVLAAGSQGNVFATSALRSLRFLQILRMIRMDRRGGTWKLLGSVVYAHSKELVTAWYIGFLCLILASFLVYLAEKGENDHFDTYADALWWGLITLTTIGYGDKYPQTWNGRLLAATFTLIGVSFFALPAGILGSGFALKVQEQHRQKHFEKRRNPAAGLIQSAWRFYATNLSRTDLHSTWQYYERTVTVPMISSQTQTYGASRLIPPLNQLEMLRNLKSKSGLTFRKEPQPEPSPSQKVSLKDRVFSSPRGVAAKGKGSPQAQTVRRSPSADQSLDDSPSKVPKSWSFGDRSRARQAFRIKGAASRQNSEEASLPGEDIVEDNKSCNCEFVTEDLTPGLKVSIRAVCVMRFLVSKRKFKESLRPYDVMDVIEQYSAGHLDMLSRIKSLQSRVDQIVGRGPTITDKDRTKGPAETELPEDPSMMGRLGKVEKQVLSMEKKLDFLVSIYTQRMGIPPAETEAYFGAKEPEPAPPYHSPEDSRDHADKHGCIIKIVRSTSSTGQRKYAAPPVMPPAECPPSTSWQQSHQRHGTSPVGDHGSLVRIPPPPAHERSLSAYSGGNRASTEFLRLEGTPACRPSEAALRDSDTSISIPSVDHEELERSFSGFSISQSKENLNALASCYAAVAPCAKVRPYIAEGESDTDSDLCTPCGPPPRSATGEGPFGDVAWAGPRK

[2] = target: T2, Sentrin-specific protease 7 (Homo sapiens, UniProt Q9BQF6); type: functional;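 note: Luminescence-based dose-response confirmation of ultra-high-throughput screening hits, measuring inhibition of SENP7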
T2 sequence (Q9BQF6 whole entry): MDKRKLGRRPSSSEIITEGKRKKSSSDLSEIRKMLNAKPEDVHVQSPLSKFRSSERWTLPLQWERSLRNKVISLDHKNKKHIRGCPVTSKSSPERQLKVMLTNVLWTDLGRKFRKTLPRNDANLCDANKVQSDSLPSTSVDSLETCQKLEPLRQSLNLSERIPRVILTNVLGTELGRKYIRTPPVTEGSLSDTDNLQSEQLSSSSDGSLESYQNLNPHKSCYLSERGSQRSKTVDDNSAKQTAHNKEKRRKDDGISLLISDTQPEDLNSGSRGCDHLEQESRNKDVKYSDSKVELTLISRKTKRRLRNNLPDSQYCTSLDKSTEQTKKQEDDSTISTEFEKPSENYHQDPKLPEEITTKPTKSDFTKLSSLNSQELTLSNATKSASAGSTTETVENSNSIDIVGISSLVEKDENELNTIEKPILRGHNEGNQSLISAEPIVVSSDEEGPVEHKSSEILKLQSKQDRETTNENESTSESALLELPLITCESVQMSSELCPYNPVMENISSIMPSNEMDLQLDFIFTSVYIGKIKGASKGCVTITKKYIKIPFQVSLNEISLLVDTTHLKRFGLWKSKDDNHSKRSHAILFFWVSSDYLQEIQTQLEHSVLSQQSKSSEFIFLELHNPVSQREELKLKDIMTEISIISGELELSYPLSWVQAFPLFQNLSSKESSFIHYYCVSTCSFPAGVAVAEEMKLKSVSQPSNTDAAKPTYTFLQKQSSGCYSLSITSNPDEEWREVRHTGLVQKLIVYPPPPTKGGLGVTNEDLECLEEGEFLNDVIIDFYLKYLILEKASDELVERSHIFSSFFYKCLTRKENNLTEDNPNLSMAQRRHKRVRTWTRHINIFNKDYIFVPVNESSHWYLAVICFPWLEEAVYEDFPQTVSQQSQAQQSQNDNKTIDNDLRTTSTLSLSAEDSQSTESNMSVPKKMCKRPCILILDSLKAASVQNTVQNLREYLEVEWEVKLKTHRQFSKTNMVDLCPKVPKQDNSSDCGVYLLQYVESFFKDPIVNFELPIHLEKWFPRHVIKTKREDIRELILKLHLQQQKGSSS

[3] = target: T3, Sentrin-specific protease 6 (Homo sapiens, UniProt Q9GZR1); type: functional;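 note: Luminescence-based dose-response confirmatory assay of SENP6 inhibition, following up an ultra-high-throughput screen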
T3 sequence (Q9GZR1 whole entry): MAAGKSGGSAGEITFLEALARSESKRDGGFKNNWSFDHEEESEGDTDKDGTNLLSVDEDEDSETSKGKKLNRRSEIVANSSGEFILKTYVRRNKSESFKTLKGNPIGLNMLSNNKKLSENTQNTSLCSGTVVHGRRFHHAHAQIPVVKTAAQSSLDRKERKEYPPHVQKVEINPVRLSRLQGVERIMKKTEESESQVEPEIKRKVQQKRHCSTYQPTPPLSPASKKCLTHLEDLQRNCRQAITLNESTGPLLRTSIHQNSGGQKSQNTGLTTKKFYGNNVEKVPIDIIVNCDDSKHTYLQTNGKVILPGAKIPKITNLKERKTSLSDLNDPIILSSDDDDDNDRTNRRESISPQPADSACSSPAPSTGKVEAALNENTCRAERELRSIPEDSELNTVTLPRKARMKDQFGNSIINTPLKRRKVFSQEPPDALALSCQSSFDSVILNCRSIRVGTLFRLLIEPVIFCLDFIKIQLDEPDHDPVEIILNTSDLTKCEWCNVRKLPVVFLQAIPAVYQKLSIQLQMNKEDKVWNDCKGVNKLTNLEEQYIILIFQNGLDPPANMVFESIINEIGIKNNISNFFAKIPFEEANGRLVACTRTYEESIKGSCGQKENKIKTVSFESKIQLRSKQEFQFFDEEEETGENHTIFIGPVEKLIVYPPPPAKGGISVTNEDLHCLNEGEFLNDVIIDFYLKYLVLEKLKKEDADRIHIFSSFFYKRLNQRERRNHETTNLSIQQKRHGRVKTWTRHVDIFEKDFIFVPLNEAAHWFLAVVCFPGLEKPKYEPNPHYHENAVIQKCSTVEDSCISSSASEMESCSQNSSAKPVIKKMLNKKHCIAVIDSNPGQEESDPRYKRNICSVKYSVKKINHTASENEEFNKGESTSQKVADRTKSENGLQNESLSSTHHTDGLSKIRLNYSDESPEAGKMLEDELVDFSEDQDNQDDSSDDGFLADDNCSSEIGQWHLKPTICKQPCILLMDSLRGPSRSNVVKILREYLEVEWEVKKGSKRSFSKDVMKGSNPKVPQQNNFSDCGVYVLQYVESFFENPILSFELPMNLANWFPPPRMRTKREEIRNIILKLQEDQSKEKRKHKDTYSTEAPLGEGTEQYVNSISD

[4] = target: T4, Sentrin-specific protease 8 (Homo sapiens, UniProt Q96LD8); type: functional;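 note: luminescence read-out of SENP8 inhibition, dose-response confirmation following an ultra-high-throughput screen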
T4 sequence (Q96LD8 whole entry): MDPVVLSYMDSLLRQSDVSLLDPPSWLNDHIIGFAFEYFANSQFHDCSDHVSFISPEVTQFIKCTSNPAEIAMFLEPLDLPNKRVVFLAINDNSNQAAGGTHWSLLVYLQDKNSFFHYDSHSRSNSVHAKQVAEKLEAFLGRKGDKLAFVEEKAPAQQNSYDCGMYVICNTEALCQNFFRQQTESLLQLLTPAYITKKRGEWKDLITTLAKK

Perilipin-1/ABHD5 = Perilipin-1/ABHD5 (Homo sapiens, UniProt O60240+Q8WTS1); experiment: Luminescence-based biochemical high throughput dose response assay for inhibitors of the interaction of the lipase co-activator protein, abhydrolase domain containing 5 (ABHD5) with perilipin-1 (PLIN1) (2K validation set). [Related pubchem assays (depositor defined):AID493027, AID493057]
Chain of Perilipin-1/ABHD5 (Q8WTS1 whole entry, the tested form may be a part): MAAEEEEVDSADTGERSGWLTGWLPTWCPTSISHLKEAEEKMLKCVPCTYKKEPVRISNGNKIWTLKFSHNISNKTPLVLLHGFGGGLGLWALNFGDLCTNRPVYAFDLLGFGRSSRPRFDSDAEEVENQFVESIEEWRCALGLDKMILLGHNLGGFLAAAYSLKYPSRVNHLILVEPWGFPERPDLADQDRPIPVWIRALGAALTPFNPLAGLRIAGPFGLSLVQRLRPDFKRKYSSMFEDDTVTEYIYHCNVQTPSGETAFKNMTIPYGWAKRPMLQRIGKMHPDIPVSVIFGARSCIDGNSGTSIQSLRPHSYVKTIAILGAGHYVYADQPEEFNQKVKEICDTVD
Chain of Perilipin-1/ABHD5 (O60240 whole entry, the tested form may be a part): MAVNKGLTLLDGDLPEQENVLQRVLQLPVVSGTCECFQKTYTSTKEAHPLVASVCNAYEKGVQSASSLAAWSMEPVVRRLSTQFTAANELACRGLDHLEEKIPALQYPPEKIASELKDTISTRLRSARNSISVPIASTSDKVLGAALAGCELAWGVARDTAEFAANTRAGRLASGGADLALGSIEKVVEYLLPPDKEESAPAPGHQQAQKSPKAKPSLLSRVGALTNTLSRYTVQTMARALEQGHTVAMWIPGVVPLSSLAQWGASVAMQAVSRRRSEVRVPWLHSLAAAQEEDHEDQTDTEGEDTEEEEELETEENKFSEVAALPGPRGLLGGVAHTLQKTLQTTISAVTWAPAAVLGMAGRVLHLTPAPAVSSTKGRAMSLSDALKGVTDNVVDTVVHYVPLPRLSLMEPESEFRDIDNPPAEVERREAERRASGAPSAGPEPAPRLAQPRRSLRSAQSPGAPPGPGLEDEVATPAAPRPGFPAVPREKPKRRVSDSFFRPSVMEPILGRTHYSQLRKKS

[5] = viability of PTEN-deleted HCT116 cells – cell-based, HCT116 PTEN knockout, dose response (AID 1047); type: functional;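 note: HCT116 colon tumor cells with PTEN knocked out; cells exposed to compound for 60 hours before readout; potency for loss of cell viability measured by luminescence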
[6] = target: 1-acylglycerol-3-phosphate O-acyltransferase ABHD5/Perilipin-5 (Homo sapiens, UniProt Q00G26+Q8WTS1); experiment: Luminescence-based biochemical high throughput dose response assay for inhibitors of the interaction of the lipase co-activator protein, abhydrolase domain containing 5 (ABHD5) with perilipin-5 (MLDP; PLIN5) (2K validation set). [Related pubchem assays (depositor defined):AID493035, AID493241]
Chain of 1-acylglycerol-3-phosphate O-acyltransferase ABHD5/Perilipin-5 (Q00G26 whole entry, the tested form may be a part): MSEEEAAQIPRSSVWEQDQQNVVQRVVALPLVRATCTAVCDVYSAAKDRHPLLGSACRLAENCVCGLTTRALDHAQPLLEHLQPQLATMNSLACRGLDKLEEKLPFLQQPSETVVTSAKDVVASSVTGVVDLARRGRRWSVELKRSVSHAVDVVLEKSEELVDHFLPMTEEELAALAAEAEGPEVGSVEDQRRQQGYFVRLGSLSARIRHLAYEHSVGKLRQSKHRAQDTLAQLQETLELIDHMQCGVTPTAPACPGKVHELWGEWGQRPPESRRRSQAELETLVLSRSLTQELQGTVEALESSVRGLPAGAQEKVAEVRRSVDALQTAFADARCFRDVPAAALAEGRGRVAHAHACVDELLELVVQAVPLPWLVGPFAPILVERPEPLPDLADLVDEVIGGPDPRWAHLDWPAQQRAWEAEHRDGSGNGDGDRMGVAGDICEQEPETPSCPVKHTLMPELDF
Chain of 1-acylglycerol-3-phosphate O-acyltransferase ABHD5/Perilipin-5 (Q8WTS1 whole entry, the tested form may be a part): as the sequence (Q8WTS1 whole entry, the tested form may be a part) above

[7] = viability of HCT116 lacking mutant beta-catenin – cell-based, human colon tumor, dose response (AID 1045); type: functional;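 note: HCT116 colon tumor cells with beta catenin knocked out; cells exposed to compound for 60 hours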
[8] = target: T5, Heat shock factor protein 1 (Mus musculus, UniProt P38532); experiment: enhancement of HSF1-driven luciferase signal – cell-based, NIH3T3, luminescence, dose retest, confirmation (AID 435004); type: functional;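 note: stress induced by proteasome inhibitor MG132 added 30 min after compound; luciferase reporter driven by HSF1 response element in NIH3T3 cells; actives raise luminescence as potentiators of the MG132 stress response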
T5 sequence (P38532 whole entry): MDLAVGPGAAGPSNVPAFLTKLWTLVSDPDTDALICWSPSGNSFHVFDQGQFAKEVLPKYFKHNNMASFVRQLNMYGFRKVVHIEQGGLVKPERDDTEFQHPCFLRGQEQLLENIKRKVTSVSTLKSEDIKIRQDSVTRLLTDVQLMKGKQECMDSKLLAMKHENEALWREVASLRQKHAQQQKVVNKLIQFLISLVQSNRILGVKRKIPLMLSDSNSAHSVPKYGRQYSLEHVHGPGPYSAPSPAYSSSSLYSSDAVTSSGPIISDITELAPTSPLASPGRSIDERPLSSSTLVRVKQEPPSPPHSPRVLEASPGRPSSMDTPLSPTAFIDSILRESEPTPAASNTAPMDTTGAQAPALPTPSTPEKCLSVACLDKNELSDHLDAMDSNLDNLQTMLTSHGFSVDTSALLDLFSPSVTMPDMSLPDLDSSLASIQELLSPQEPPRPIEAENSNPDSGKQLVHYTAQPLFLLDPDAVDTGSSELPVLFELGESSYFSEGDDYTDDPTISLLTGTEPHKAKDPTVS

Vero [9] = experiment: cells; type: functional; conditions: Chlorocebus sabaeus
Importin subunit alpha-1 = Importin subunit alpha-1 (Homo sapiens, UniProt P52292); experiment: compounds lowering YIC probe YFP/CFP ratio – biochemical, dry powder samples, FRET, counter-screen for RanGTP-importin-beta inhibitor project, dose response (AID 493094); type: functional
Integrin alpha-L = Integrin alpha-L (Mus musculus, UniProt P24063); experiment: modulators of CD8 T cell-vesicle binding, dose response, powder samples, mouse 2C CD8+ cells (AID 504565); type: functional
Streptococcus = experiment: GAS UMAA2166 growth inhibition – luminescence, BacTiterGlo, counter-screen for streptokinase expression inhibitor project, dose response (AID 1915); type: functional, organism-based;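 note: potency for reduction of bacterial viability or growth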
Vero [10] = experiment: cells; type: functional, cell-based; conditions: Chlorocebus sabaeus
cells [11] = type: functional
Beta-galactosidase [12] = target: T6, Beta-galactosidase (Escherichia coli, UniProt Q8VNN2); experiment: Dose response counterscreen for EBI2 assay utilizing the enzyme, b-galactosidase.; type: functional
T6 sequence (Q8VNN2 whole entry): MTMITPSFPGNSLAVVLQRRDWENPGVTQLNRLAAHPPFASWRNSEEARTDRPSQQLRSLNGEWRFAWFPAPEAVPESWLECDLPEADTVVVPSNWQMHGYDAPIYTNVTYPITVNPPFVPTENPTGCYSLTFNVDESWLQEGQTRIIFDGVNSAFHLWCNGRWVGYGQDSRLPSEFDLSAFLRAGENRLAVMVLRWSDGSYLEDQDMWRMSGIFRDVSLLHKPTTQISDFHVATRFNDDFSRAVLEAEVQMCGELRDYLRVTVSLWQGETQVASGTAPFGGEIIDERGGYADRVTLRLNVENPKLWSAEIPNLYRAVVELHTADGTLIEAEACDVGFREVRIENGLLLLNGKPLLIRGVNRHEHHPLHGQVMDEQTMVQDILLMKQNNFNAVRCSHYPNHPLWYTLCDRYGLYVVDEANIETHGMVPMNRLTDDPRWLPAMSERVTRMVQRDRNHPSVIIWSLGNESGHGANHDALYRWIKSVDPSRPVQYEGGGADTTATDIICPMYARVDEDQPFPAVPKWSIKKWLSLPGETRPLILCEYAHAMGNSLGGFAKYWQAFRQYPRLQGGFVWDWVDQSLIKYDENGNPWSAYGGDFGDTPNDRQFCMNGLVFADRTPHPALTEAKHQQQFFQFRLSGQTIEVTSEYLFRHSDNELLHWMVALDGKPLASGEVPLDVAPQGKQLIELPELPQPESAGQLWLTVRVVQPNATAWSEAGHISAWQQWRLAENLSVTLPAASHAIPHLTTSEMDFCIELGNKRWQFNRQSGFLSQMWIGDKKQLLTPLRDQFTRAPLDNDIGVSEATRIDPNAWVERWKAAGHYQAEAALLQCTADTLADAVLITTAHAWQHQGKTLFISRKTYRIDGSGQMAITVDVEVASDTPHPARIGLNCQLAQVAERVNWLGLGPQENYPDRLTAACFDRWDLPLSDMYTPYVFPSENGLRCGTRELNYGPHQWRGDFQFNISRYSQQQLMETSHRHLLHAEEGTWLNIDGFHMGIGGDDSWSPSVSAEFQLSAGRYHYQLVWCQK

Beta-galactosidase [13] = target: T6, Beta-galactosidase; type: functional
INS1 = experiment: INS-1E survival protection against cytokine death – cell-based, luminescence, retest, dose response (AID 449756); type: functional; conditions: Rattus norvegicus;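 note: cell death triggered by IL-1 beta plus TNF-alpha plus IFN-gamma mixture; protective hits raise ATP signal compared with cytokine alone wells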
[14] = target: T7, Kappa-type opioid receptor (Homo sapiens, UniProt P41145); type: functional
T7 sequence (P41145 whole entry, the tested form may be a part): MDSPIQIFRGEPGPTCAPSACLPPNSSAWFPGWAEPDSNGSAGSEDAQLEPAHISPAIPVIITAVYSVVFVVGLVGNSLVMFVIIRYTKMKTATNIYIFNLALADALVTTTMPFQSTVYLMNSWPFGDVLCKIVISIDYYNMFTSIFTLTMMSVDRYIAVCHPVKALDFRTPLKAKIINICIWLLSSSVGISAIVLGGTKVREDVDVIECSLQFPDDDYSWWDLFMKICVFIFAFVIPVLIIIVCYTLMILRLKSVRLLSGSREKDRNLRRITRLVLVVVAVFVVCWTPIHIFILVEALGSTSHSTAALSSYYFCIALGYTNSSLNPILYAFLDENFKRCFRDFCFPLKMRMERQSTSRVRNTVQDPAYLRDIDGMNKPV

[15] = luciferase reporter signal reduction – luminescence, H4-C neuroglioblastoma cells, dose response (AID 2458); type: functional, cell-based;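 note: H4 neuroglioblastoma cells stably carrying a luciferase reporter gene fusion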
Nonstructural protein 1 = Nonstructural protein 1 (Influenza A virus, UniProt Q194T2); type: functional, Influenza A virus (A/California/07/2009(H1N1))
Chain of Nonstructural protein 1 (Q194T2 whole entry): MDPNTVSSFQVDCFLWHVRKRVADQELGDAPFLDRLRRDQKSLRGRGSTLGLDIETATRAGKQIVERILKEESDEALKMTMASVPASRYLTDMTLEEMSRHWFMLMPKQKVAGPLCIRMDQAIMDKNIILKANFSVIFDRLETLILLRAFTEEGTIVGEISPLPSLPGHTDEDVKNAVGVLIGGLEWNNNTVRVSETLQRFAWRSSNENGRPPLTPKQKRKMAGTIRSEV

[16] = alpha-synuclein stem-loop translation blockers – luminescence, H4 neuroglioblastoma cells, dose confirmation, confirmation (AID 2454); type: functional, cell-based;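 note: H4 neuroglioblastoma cells carrying an alpha-synuclein 5'UTR luciferase reporter; potency for inhibition of the luciferase signal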
[17] = luciferase reporter signal suppression in cells – H4 neuroglioma cells, luminescence, dose response (AID 1990); type: functional, cell-based
[18] = alpha-synuclein stem-loop luciferase translation blockers – H4 neuroglioma cells, luminescence, confirmation (AID 1988); type: functional, cell-based
[19] = target: T7, Kappa-type opioid receptor; type: functional; remark: listed apart in the source
[20] = Vero E6 cell cytotoxicity, dose response, cytotoxicity control for non-replicating M. tuberculosis project, secondary assay (AID 492998); type: functional, VeroE6; conditions: Vero C1008
[21] = HepG2 cell cytotoxicity, dose response, cytotoxicity control for non-replicating M. tuberculosis project (AID 489018); type: functional; conditions: Mycobacterium tuberculosis
Beta-galactosidase [22] = target: T6, Beta-galactosidase; experiment: PubChem AID 485352; type: functional
[23] = target: Type-1 angiotensin II receptor (Homo sapiens, UniProt P30556); experiment: antagonism of angiotensin II type 1 receptor – cell-based, uHTS hits, selectivity assay for APJ receptor antagonist project, dose response (AID 463214); type: functional;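 note: antagonist potency against angiotensin II stimulated AT1 response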
Chain of Type-1 angiotensin II receptor (P30556 whole entry): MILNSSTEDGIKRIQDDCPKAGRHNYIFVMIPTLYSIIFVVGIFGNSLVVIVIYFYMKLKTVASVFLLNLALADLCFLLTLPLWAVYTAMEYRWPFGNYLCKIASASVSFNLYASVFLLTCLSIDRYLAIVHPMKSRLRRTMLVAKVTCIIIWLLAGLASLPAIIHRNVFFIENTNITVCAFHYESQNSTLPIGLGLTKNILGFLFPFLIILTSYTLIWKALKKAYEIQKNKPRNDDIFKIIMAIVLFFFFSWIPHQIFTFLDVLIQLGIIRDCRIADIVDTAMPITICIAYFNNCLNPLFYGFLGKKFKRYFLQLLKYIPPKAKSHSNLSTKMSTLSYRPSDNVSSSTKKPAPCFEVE

cells [24] = type: functional, cell-based
[25] = test system: Streptococcus sp. 'group A'; experiment: Streptococcus pyogenes SK(-)GAS viability under kanamycin – luminescence, BacTiterGlo, confirmation, counter-screen for streptokinase expression inhibitor project, dose response (AID 1900); type: functional, organism-based
[26] = THP-1 cell cytotoxicity, dose response, cytotoxicity control for non-replicating M. tuberculosis project (AID 489025); type: functional
[27] = target: DNA dC->dU-editing enzyme APOBEC-3G (Homo sapiens, UniProt Q9HC16); experiment: Dose Response confirmation of small molecule APOBEC3G DNA Deaminase Inhibitors via a fluorescence-based single-stranded DNA deaminase assay. [Related pubchem assays (depositor defined):AID493012, AID493028]; type: functional
Chain of DNA dC->dU-editing enzyme APOBEC-3G (Q9HC16 whole entry): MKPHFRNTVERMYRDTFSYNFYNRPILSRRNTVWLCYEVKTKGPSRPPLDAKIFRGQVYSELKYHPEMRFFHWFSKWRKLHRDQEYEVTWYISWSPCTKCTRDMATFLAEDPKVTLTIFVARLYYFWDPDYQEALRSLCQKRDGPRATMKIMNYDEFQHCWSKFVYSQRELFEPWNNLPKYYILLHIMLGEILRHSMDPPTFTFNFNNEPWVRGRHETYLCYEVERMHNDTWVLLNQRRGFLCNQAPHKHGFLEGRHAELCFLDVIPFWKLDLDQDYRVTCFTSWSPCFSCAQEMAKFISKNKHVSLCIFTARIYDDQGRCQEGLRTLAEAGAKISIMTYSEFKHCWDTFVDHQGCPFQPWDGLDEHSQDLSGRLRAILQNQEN

[28] = target: DNA dC->dU-editing enzyme APOBEC-3A (Homo sapiens, UniProt P31941); experiment: A3A deaminase inhibition for selectivity – biochemical, dose response (AID 504722); type: functional
Chain of DNA dC->dU-editing enzyme APOBEC-3A (P31941 whole entry): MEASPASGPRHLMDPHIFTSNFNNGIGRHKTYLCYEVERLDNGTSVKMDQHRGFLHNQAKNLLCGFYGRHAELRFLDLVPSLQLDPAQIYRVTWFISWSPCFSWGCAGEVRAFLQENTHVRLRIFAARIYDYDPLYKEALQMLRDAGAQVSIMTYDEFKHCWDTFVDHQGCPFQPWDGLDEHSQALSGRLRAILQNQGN

SMILES: CCCCc1ccc(NC(=O)Nc2cccnc2)cc1
- IC50 (Caspase-3): 22.7 µM (active)
- EC50 [1]: 13.7 µM (active)
- IC50 [2]: 5.08 µM (active)
- IC50 [3]: 14.1 µM (active)
- IC50 [4]: 16.8 µM (active)

SMILES: O=C(/C=C/Sc1ccccc1)c1ccccc1
- IC50 (Perilipin-1/ABHD5): 3.91 µM (active)
- EC50 [5]: 27.7 µM (active)
- IC50 [6]: 3.91 µM (active)
- EC50 [7]: 28.4 µM (active)
- EC50 [8]: 5.83 µM (active)
- CC50 (Vero [9]): 23.6 µM (active)

SMILES: CSc1ccc(/C=C(/Sc2nnc(-c3ccccc3)o2)C(=O)O)cc1
- AC50 (Importin subunit alpha-1): 116 µM (active)

SMILES: O=C(c1ccc(N2C(=O)C3CC=C(Cl)CC3C2=O)cc1)N1CCCCC1 (stereo unspecified)
- EC50 (Integrin alpha-L): 9.02 µM (active)

SMILES: C/C(=N\NC(=O)c1cccc(Br)c1)c1ccccn1
- EC50 (Streptococcus): 4.74 µM (active)
- IC50 (Vero [10]): > 25 µM (active)
- IC50 (cells [11]): 0.57 µM (active)
- IC50 (Beta-galactosidase [12]): > 80 µM (inactive)
- EC50 (Beta-galactosidase [13]): > 31.5 µM (inactive)
- AC50 (INS1): 0.315 µM (active)
- IC50 [14]: 1.82 µM (active)
- EC50 [15]: 0.714 µM (active)
- IC50 (Nonstructural protein 1): 1.67 µM (active)
- EC50 [16]: 0.895 µM (active)
- EC50 [17]: 30 µM (active)
- EC50 [18]: < 0.1 µM (active)
- IC50 [19]: > 32 µM
- CC50 [20]: 1.03 µM (active)
- CC50 [21]: 2.71 µM (active)
- EC50 (Beta-galactosidase [22]): > 40 µM (inactive)
- IC50 [23]: 3.51 µM (active)
- EC50 (cells [24]): 0.966 µM (active)
- EC50 [25]: 1.29 µM (active)
- CC50 (Vero [9]): 1.78 µM (active)
- CC50 [26]: 0.584 µM (active)

SMILES: CCc1c(C)nc(S)c(C#N)c1C
- IC50 [27]: 6 µM (active)
- IC50 [28]: > 100 µM (inactive)

Source: ChEMBL document CHEMBL1201862, “PubChem BioAssay data set” (2004)
